Experimental data reported in patent US7713994B2 (Wyeth LLC, priority 2005, dated 2010).
Read-outs that look alike come from different tables or passages of the source.

Columns and labels:
[1] = test system: LoVo; test: Cytotoxicity assay (SRB), LoVo; assay type: cell-based; conditions: LoVo cells, SRB, three days, read-out: In Vitro Cellular Activity IC50 LOVO
How it was run: (§1)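 Seeding: BT474 12000, HCT-116 4000, LoVo 6000, MCF-7 6000 cells/well; overnight attachment, 37 °C, 7% CO2. Drug exposure 3 d (BT474 6 d), RPMI 1640 + 5% FBS. Readout: TCA fix, 0.4% SRB, Tris solubilisation, A540.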

[2] = molecular target: T1, cyclin B/CDK1 enzyme (Homo sapiens, UniProt P06493); test: CDK1 ELISA kinase assay (phospho-Rb ser 795 detection); assay type: biochemical; conditions: In Vitro Enzyme Assays, read-out: CDK1 IC50
T1 construct: purchased New England BioLabs; host or cells: Sf9 insect cells, recombinant baculovirus
T1 sequence (P06493 whole entry): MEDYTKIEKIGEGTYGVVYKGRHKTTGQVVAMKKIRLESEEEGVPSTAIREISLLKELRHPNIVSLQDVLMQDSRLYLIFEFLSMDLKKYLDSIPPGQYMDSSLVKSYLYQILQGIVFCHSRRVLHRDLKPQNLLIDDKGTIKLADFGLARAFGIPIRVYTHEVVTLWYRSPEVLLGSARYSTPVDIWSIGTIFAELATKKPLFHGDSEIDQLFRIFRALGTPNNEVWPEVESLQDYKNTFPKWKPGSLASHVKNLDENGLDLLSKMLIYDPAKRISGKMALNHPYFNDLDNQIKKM
T1 sequence (P14635 whole entry partner): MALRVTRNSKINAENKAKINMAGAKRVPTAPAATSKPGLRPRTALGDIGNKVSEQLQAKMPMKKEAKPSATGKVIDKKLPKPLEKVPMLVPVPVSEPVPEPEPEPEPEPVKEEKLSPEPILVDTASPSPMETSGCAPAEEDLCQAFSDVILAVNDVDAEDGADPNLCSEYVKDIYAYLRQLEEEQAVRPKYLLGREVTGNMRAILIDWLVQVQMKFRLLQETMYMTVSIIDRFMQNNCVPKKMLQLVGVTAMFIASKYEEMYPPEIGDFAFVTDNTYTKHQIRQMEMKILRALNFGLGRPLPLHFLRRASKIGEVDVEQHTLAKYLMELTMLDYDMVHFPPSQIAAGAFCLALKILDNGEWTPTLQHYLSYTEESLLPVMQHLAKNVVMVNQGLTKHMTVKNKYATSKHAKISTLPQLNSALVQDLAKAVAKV
How it was run: (§2)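 GST-Rb C-terminal fragment coated on plates; partially purified Sf9-expressed cyclin D1/CDK4, cyclin E/CDK2 or cyclin B/CDK1 with 200 μM ATP, pH 7.5 HEPES/MgCl2 buffer, 1 h at 30 °C; screen compound final 10 μg/ml. Phospho-Rb Ser795 detected by antibody ELISA (TMB, A450); % of control, IC50 from background-subtracted inhibition curves.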

[3] = test system: BT474; test: Cytotoxicity assay (SRB), BT474; assay type: cell-based; conditions: BT474 cells, SRB, 6 days, read-out: In Vitro Cellular Activity IC50 BT474
How it was run: as §1

[4] = test system: HCT-116; test: Cytotoxicity assay (SRB), HCT-116; assay type: cell-based; conditions: HCT116 cells, SRB, three days, read-out: In Vitro Cellular Activity IC50 HCT116
How it was run: as §1

[5] = test system: MCF-7; test: Cytotoxicity assay (SRB), MCF-7; assay type: cell-based; conditions: MCF-7 cells, SRB, three days, read-out: In Vitro Cellular Activity IC50 MCF-7
How it was run: as §1

[6] = molecular target: T2, cyclin D1/cdk 4 enzyme (Homo sapiens, UniProt P11802); test: CDK4 ELISA kinase assay (phospho-Rb ser 795 detection); assay type: biochemical; conditions: In Vitro Enzyme Assays, 200 μM ATP, read-out: CDK4 IC50
T2 construct: made in house; host or cells: Sf9 insect cells, recombinant baculovirus
T2 sequence (P11802 whole entry, species assumed): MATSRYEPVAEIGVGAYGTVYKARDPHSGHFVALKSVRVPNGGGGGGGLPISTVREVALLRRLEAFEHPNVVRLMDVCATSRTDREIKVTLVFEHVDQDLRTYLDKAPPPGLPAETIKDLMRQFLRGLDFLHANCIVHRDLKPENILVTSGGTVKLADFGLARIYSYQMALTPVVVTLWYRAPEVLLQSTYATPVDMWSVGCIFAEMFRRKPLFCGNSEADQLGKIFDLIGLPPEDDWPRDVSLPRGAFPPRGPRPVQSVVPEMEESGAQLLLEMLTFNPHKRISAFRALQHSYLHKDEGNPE
T2 sequence (P24385 whole entry partner, species assumed): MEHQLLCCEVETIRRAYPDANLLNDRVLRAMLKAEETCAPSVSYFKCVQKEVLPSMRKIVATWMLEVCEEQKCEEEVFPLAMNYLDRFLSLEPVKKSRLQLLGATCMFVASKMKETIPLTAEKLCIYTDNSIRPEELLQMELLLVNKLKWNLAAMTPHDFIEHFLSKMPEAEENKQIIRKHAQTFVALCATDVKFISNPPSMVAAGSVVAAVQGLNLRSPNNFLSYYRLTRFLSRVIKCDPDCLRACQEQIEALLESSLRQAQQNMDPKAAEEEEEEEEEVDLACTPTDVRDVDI
How it was run: as §2

[7] = molecular target: T3, cyclin E/CDK2 enzyme (Homo sapiens, UniProt P24941); test: CDK2 ELISA kinase assay (phospho-Rb ser 795 detection); assay type: biochemical; conditions: In Vitro Enzyme Assays, read-out: CDK2 IC50
T3 construct: made in house; host or cells: Sf9 insect cells, recombinant baculovirus
How it was run: as §2

IC50 [2] [µM]	IC50 [6] [µM]	IC50 [7] [µM]	SMILES	IC50 ([1]; Homo sapiens, LoVo, 72 h) [µM]	IC50 ([3]; Homo sapiens, BT-474, 144 h) [µM]	IC50 ([4]; Homo sapiens, HCT-116, 72 h) [µM]	IC50 ([5]; Homo sapiens, MCF7, 72 h) [µM]	IC50 [1] [µM]	IC50 [3] [µM]	IC50 [4] [µM]	IC50 [5] [µM]
45.5	0.22	17.9	CN1CCCC1c1ccc(NC=C2C(=O)NC(=O)c3ccc(I)cc32)cc1 (stereo not shown) [Example 361, 6-Iodo-4-{[4-(1-methyl-pyrrolidin-2-yl)-phenylamino]-methylene}-4H-isoquinoline-1,3-dione]	5.9	0.86	3.8	2.6	–	–	–	–
> 50	12.6	43.4	COC(=O)[C@H]1CCCN1Cc1ccc(NC=C2C(=O)NC(=O)c3ccc(I)cc32)cc1 [Example 367, D-1-{4-[(6-Iodo-1,3-dioxo-2,3-dihydro-1H-isoquinolin-4-ylidenemethyl)-amino]-benzyl}-pyrrolidine-2-carboxylic acid methyl ester]	26	15	13	13	–	–	–	–
> 50	0.51	30.3	O=C1NC(=O)c2ccc(I)cc2/C1=C/Nc1ccc(CN2CCC[C@@H]2CO)cc1 [Example 368, D-4-{[4-(2-Hydroxymethyl-pyrrolidin-1-ylmethyl)-phenylamino]-methylene}-6-iodo-4H-isoquinoline-1,3-dione]	3.7	0.5	3.2	1.8	–	–	–	–
> 50	0.46	> 50	CC(C)(O)[C@H]1CCCN1Cc1ccc(N/C=C2\C(=O)NC(=O)c3ccc(I)cc32)cc1 [Example 369, D-4-({4-[2-(1-Hydroxy-1-methyl-ethyl)-pyrrolidin-1-ylmethyl]-phenylamino}-methylene)-6-iodo-4H-isoquinoline-1,3-dione]	5	1.2	4.3	1.7	–	–	–	–
> 50	0.39	> 50	COC(C)C1CCCN1Cc1ccc(N/C=C2\C(=O)NC(=O)c3ccc(I)cc32)cc1 (stereo not shown) [Example 375, 6-Iodo-4-({4-[2-(1-methoxy-ethyl)-pyrrolidin-1-ylmethyl]-phenylamino}-methylene)-4H-isoquinoline-1,3-dione]	3.2	0.52	3.9	0.71	–	–	–	–
> 50	0.43	> 50	O=C1NC(=O)c2ccc(I)cc2/C1=C/Nc1ccc(CN2CCC[C@H]2CO)cc1 [Example 376, L-4-{[4-(2-Hydroxymethyl-pyrrolidin-1-ylmethyl)-phenylamino]-methylene}-6-iodo-4H-isoquinoline-1,3-dione]	2.6	0.37	3.6	0.55	–	–	–	–
20.4	0.65	15.4	O=C1NC(=O)c2ccc(I)cc2/C1=C/Nc1ccc(N2CCNCC2)cc1 [Example 378, (4Z)-6-Iodo-4-{[(4-piperazin-1-ylphenyl)amino]methylene}isoquinoline-1,3(2H,4H)-dione]	2.6	2.9	1.5	1.1	–	–	–	–

The next lines start with the molecule.

SMILES	IC50 [2] [µM]	IC50 [6] [µM]	IC50 [7] [µM]	IC50 ([1]; Homo sapiens, LoVo, 72 h) [µM]	IC50 ([3]; Homo sapiens, BT-474, 144 h) [µM]	IC50 ([4]; Homo sapiens, HCT-116, 72 h) [µM]	IC50 ([5]; Homo sapiens, MCF7, 72 h) [µM]	IC50 [1] [µM]	IC50 [3] [µM]	IC50 [4] [µM]	IC50 [5] [µM]
C=CC(=O)Nc1ccc(CN/C=C2\C(=O)NC(=O)c3ccc(I)cc32)cc1O [Example 342, N-[2-Hydroxy-4-({[(Z)-(6-iodo-1,3-dioxo-2,3-dihydroisoquinolin-4(1H)-ylidene)methyl]amino}methyl)phenyl]acrylamide]	2.9	0.01	0.86	0.09	0.07	0.12	0.15	–	–	–	–
C/C=C/C(=O)Nc1ccc(CN/C=C2\C(=O)NC(=O)c3ccc(I)cc32)cc1OC(=O)/C=C/C [Example 343, 2-[(2E)-But-2-enoylamino]-5-({[(Z)-(6-iodo-1,3-dioxo-2,3-dihydroisoquinolin-4(1H)-ylidene)methyl]amino}methyl)phenyl (2E)-but-2-enoate]	> 50	7.8	22.6	9.8	7.7	12	14	–	–	–	–
CCCOc1ccc(CN/C=C2\C(=O)NC(=O)c3ccc(Br)cc32)cc1C(N)=O [Example 353, 5-({[(Z)-(6-Bromo-1,3-dioxo-2,3-dihydroisoquinolin-4(1H)-ylidene)methyl]amino}methyl)-2-propoxybenzamide]	> 50	> 50	31.7	1	0.67	6.1	> 50	–	–	–	–
CC(c1ccc(N/C=C2\C(=O)NC(=O)c3ccc(I)cc32)cc1)N1CCCC1 (stereo not shown) [Example 354, 6-Iodo-4-{[4-(1-pyrrolidin-1-yl-ethyl)-phenylamino]-methylene}-4H-isoquinoline-1,3-dione]	> 50	0.23	5	3.5	8.6	4.8	0.94	–	–	–	–
CN1CCN(C2CCC(NC=C3C(=O)NC(=O)c4ccc(I)cc43)CC2)CC1 (stereo not shown) [Example 360, 6-Iodo-4-{[4-(4-methyl-piperazin-1-yl)-cyclohexylamino]-methylene}-4H-isoquinoline-1,3-dione]	> 50	0.46	> 50	9.6	16	9.6	8.9	–	–	–	–
COc1cnc(CNC=C2C(=O)NC(=O)c3ccc(I)cc32)cc1O [Example 362, 6-Iodo-4-{[(4-hydroxy-5-methoxy-pyridin-2-ylmethyl)-amino]-methylene}-4H-isoquinoline-1,3-dione]	14.7	0.01	0.5	0.7	0.2	1.3	1	–	–	–	–
CCCOc1cnc(CNC=C2C(=O)NC(=O)c3ccc(-n4cccc4)cc32)cc1O [Example 363, 4-{[(4-Hydroxy-5-propoxy-pyridin-2-ylmethyl)-amino]-methylene}-6-pyrrol-1-yl-4H-isoquinoline-1,3-dione]	> 50	0.006	14.7	2.3	1.5	3.2	2.4	–	–	–	–
CCCOc1cnc(CNC=C2C(=O)NC(=O)c3ccc(Br)cc32)cc1O [Example 365, 4-{[(4-Hydroxy-5-propoxy-pyridin-2-ylmethyl)-amino]-methylene}-6-bromo-4H-isoquinoline-1,3-dione]	> 50	0.07	1.9	1	0.76	1.3	1.2	–	–	–	–
CCCOc1ccc(CN/C=C2\C(=O)NC(=O)c3ccc(I)cc32)nc1Br [Example 379, (Z)-4-(((6-Bromo-5-propoxypyridin-2-yl)methylamino)methylene)-6-iodoisoquinoline-1,3(2H,4H)-dione]	> 50	0.69	> 50	–	–	–	–	2.6	1.4	2.1	14
C/C=C/C(=O)Nc1ccc2c(c1)/C(=C/Nc1ccc(N3CCN(C)CC3)cc1)C(=O)NC2=O [Example 384, (2E)-N-[(4Z)-4-({[4-(4-Methylpiperazin-1-yl)phenyl]amino}methylene)-1,3-dioxo-1,2,3,4-tetrahydroisoquinolin-6-yl]but-2-enamide]	38.8	> 50	> 50	19	26	12	24	–	–	–	–
C=CC(=O)Nc1ccc2c(c1)/C(=C/Nc1ccc(N3CCN(C)CC3)cc1)C(=O)NC2=O [Example 385, N-[(4Z)-4-({[4-(4-Methylpiperazin-1-yl)phenyl]amino}methylene)-1,3-dioxo-1,2,3,4-tetrahydroisoquinolin-6-yl]acrylamide]	11.5	14.7	20.7	3.5	0.39	1.4	1.6	–	–	–	–
CC(C)N1CCN(c2ccc(N/C=C3\C(=O)NC(=O)c4ccc(I)cc43)cc2)CC1 [Example 386, (4Z)-6-Iodo-4-({[4-(4-isopropylpiperazin-1-yl)phenyl]amino}methylene)isoquinoline-1,3(2H,4H)-dione]	> 50	0.6	> 50	6.5	7	2.6	2.2	–	–	–	–
